{"source": "ChEMBL document CHEMBL2311511", "about": "“Dipeptide cis-cyclo(Leucyl-Tyrosyl) produced by sponge associated Penicillium sp. F37 inhibits biofilm formation of the pathogenic Staphylococcus epidermidis” (Bioorg Med Chem Lett, 2013)", "key": {"[1]": {"test_system": "Staphylococcus epidermidis", "assay": "Inhibition of Staphylococcus epidermidis ATCC 35984 biofilm formation at 1 mg/ml", "assay_type": "functional"}, "[2]": {"test_system": "Staphylococcus epidermidis", "assay": "Inhibition of Staphylococcus epidermidis ATCC 35984 biofilm formation at 0.125 mg/ml", "assay_type": "functional, organism-based"}, "[3]": {"test_system": "Staphylococcus epidermidis", "assay": "Inhibition of Staphylococcus epidermidis ATCC 35984 biofilm formation at 0.25 mg/ml", "assay_type": "functional"}, "[4]": {"test_system": "Staphylococcus epidermidis", "assay": "Toxicity in Staphylococcus epidermidis ATCC 35984 assessed as growth inhibition at 0.25 to 1 mg/ml", "assay_type": "organism-based", "settings": "in vivo"}, "[5]": {"test_system": "Staphylococcus epidermidis", "assay": "Inhibition of Staphylococcus epidermidis ATCC 35984 biofilm formation at 1 mg/ml after 24 hrs by scanning electron microscopy", "assay_type": "functional, organism-based"}, "[6]": {"test_system": "Staphylococcus epidermidis", "assay": "Inhibition of Staphylococcus epidermidis ATCC 35984 biofilm formation at 0.5 mg/ml", "assay_type": "functional"}}, "note": "Calls of active or inactive are those of the source. The rule behind the calls is not given here.", "data": [{"smiles": "CC(C)C[C@@H]1NC(=O)[C@H](Cc2ccc(O)cc2)NC1=O", "values": [{"measurement": "inhibition at 1000 µg/mL", "setting": "[1]", "result": 85, "unit": "%"}, {"measurement": "Activity", "setting": "[2]", "result": "inactive"}, {"measurement": "inhibition at 250 µg/mL", "setting": "[3]", "result": 60, "unit": "%"}, {"measurement": "Activity", "setting": "[4]", "result": "Non-toxic"}, {"measurement": "inhibition", "setting": "[5]", "result": "Active"}, {"measurement": "inhibition at 500 µg/mL", "setting": "[6]", "result": 65, "unit": "%"}]}]}
